# Columns and labels:
# N. gonorrhoeae WHO K = assay: Liquid broth MIC in Fastidious broth; settings: Neisseria gonorrhoeae, read-out: Minimum Inhibitory Concentration (MIC), N. gonorrhoeae WHO K
# Experimental: (§1) Liquid broth-based assays were used for antibacterial testing of PBP inhibitors in Neisseria gonorrhoeae. Briefly, cryo-preserved bacterial cultures of clinical strains were streaked for isolation on Chocolate Agar (72 g/L (2×) GC Agar Base (BD #228950) and 2% (2×) Hemoglobin was autoclaved at 121° C. for 20 minutes to sterilize. Once cooled to ˜50° C. the 2×GC Agar Base and 2× Hemoglobin solutions are combined and 1% IsoVitaleX Enrichment (BD #211876) was added to the solution). Strains were incubated at 36° C. and 5% CO2 to allow growth of colonies, 24 hours before inoculum preparation. 2-fold serial dilutions of test compounds were conducted in a 96 well plate with a final volume of 75 μL per well at 2-fold the final desired concentration in Fastidious broth (Remel #R07664). For preparation of assay inoculum, a direct suspension was prepared by aseptically swabbing 10-15 colonies from agar plates into culture tubes containing 2 mL of fresh sterile saline. After the dilution plates were set up, direct suspensions were then diluted in a cuvette containing sterile saline and the optical density was measured at 600 nm. Inocula were diluted such that 75 μL of this culture in Fastidious broth results in a starting bacterial concentration of 5×10^5 CFU/mL when added to the dilution plates. The plates were incubated for ˜24 hours at 36° C. and 5% CO2.
# [1] = biological target: T1, PBP3 from Escherichia coli (K-12) (Escherichia coli, UniProt P0AD68); assay: Bocillin-FL fluorescence polarization competition binding, E. coli PBP3
# T1 construct: made in house
# Method in brief: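 Purified PBPs pre-incubated with inhibitor (E. coli PBP3 1.5 μM, 30 min; P. aeruginosa PBP3 0.75 μM, A. baumannii PBP1a 1 μM and PBP3 0.2 μM, 15 min), then Bocillin-FL 0.1 μM (0.05 μM for PBP1a) added; FP read up to 60 min. EC50 = concentration halving bound Bocillin-FL.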
# N. gonorrhoeae WHO L = assay: Liquid broth MIC in Fastidious broth; settings: Neisseria gonorrhoeae, read-out: Minimum Inhibitory Concentration (MIC), N. gonorrhoeae WHO L
# [2] = test system: B. thailandensis ATCC 700388; assay: microbe, parasite or virus in culture; format: cell-based; settings: Burkholderia thailandensis, ATCC700388, read-out: Minimum inhibitory concentration (MIC), B. thailandensis ATCC 700388
# P. aeruginosa CDC-0054 = assay: microbe, parasite or virus in culture; format: cell-based; settings: Pseudomonas aeruginosa, CDC0054, read-out: Minimum inhibitory concentration, P. aeruginosa CDC-0054
# A. baumannii CDC-0045 = assay: microbe, parasite or virus in culture; format: cell-based; settings: Acinetobacter baumannii, CDC0045, read-out: MIC, A. baumannii CDC-0045
# P. aeruginosa CDC-0090 = assay: microbe, parasite or virus in culture; format: cell-based; settings: Pseudomonas aeruginosa, CDC0090, read-out: Minimum inhibitory concentration, P. aeruginosa CDC-0090
# [3] = test system: B. humptydooensis ATCC BAA-2767; assay: microbe, parasite or virus in culture; format: cell-based; settings: Burkholderia humptydooensis, ATCCBAA2767, read-out: Minimum inhibitory concentration (MIC), B. humptydooensis ATCC BAA-2767
# [4] = test system: P. aeruginosa (ΔmexAB-oprM); assay: Broth microdilution MIC in iron-depleted CAMHB (IDM); format: cell-based; settings: Pseudomonas aeruginosa; iron-depleted CAMHB (IDM); […]; read-out: Minimum inhibitory concentration, P. aeruginosa ΔmexAB-oprM
# N. gonorrhoeae WHO Q = assay: Liquid broth MIC in Fastidious broth; settings: Neisseria gonorrhoeae, read-out: Minimum Inhibitory Concentration (MIC), N. gonorrhoeae WHO Q
# Experimental: as §1
# T1 sequence (P0AD68 1-577): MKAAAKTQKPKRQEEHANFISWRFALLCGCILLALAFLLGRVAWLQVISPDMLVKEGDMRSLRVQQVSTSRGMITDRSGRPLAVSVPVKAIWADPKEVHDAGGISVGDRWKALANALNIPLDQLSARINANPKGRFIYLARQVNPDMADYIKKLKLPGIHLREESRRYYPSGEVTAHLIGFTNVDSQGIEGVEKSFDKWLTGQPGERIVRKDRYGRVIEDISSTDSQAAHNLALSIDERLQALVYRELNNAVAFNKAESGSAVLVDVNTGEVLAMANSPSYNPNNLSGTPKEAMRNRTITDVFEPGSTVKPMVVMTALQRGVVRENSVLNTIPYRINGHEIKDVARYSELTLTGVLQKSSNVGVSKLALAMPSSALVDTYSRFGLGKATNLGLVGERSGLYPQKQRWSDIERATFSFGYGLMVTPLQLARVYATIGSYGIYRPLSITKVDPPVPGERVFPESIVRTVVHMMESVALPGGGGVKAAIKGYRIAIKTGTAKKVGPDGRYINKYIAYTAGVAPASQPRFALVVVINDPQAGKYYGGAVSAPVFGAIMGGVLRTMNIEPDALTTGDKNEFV
SMILES,MIC (N. gonorrhoeae WHO K) [mg/L],EC50 [1] [µM],MIC (N. gonorrhoeae WHO L) [mg/L],MIC [2] [mg/L],MIC (P. aeruginosa CDC-0054) [mg/L],MIC (A. baumannii CDC-0045) [mg/L],MIC (P. aeruginosa CDC-0090) [mg/L],MIC [3] [mg/L],MIC [4] [mg/L],MIC (N. gonorrhoeae WHO Q) [mg/L]
"O=C(NCCN1CCN(C(=O)NC(C(=O)N[C@H]2Cc3ccc(F)c(C(=O)O)c3OB2O)c2cc(F)c(O)c(O)c2Cl)C(=O)C1=O)c1cccc(O)c1 (stereo partly drawn) [Example 215, (3R)-3-(2-(2-chloro-5-fluoro-3,4-dihydroxyphenyl)-2-(4-(2-(3-hydroxybenzamido)ethyl)-2,3-dioxopiperazine-1-carboxamido)acetamido)-7-fluoro-2-hydroxy-3,4-dihydro-2H-benzo[e][1,2]oxaborinine-8-carboxylic acid]",> 64,< 10,> 64,8 to 16,8 to 16,8 to 16,< 1,< 1,< 1,> 64
"O=C(NCCN1CCN(C(=O)NC(C(=O)N[C@H]2Cc3ccc(F)c(C(=O)O)c3OB2O)c2cc(F)c(O)c(O)c2Cl)C(=O)C1=O)c1ccncc1 (stereo partly drawn) [Example 216, (3R)-3-(2-(2-chloro-5-fluoro-3,4-dihydroxyphenyl)-2-(4-(2-(isonicotinamido)ethyl)-2,3-dioxopiperazine-1-carboxamido)acetamido)-7-fluoro-2-hydroxy-3,4-dihydro-2H-benzo[e][1,2]oxaborinine-8-carboxylic acid]",> 64,< 10,> 64,2 to 4,8 to 16,2 to 4,< 1,< 1,< 1,16 to 32
"O=C(NCCN1CCN(C(=O)NC(C(=O)N[C@H]2Cc3ccc(F)c(C(=O)O)c3OB2O)c2cc(F)c(O)c(O)c2Cl)C(=O)C1=O)c1cccnc1 (stereo partly drawn) [Example 217, (3R)-3-(2-(2-chloro-5-fluoro-3,4-dihydroxyphenyl)-2-(4-(2-(nicotinamido)ethyl)-2,3-dioxopiperazine-1-carboxamido)acetamido)-7-fluoro-2-hydroxy-3,4-dihydro-2H-benzo[e][1,2]oxaborinine-8-carboxylic acid]",> 64,< 10,> 64,2 to 4,< 1,< 1,2 to 4,< 1,< 1,> 64
"O=C(NCCN1CCN(C(=O)NC(C(=O)N[C@H]2Cc3ccc(F)c(C(=O)O)c3OB2O)c2cc(F)c(O)c(O)c2Cl)C(=O)C1=O)c1nccs1 (stereo partly drawn) [Example 218, (3R)-3-(2-(2-chloro-5-fluoro-3,4-dihydroxyphenyl)-2-(2,3-dioxo-4-(2-(thiazole-2-carboxamido)ethyl)piperazine-1-carboxamido)acetamido)-7-fluoro-2-hydroxy-3,4-dihydro-2H-benzo[e][1,2]oxaborinine-8-carboxylic acid]",> 64,< 10,> 64,2 to 4,8 to 16,8 to 16,< 1,2 to 4,< 1,> 64
"O=C(NCCN1CCN(C(=O)NC(C(=O)N[C@H]2Cc3ccc(F)c(C(=O)O)c3OB2O)c2cc(F)c(O)c(O)c2Cl)C(=O)C1=O)Nc1ccc(O)cc1 (stereo partly drawn) [Example 219, (3R)-3-(2-(2-chloro-5-fluoro-3,4-dihydroxyphenyl)-2-(4-(2-(3-(4-hydroxyphenyl)ureido)ethyl)-2,3-dioxopiperazine-1-carboxamido)acetamido)-7-fluoro-2-hydroxy-3,4-dihydro-2H-benzo[e][1,2]oxaborinine-8-carboxylic acid]",> 64,< 10,> 64,8 to 16,8 to 16,8 to 16,< 1,8 to 16,< 1,> 64
"O=C(NCCN1CCN(C(=O)NC(C(=O)N[C@H]2Cc3ccc(F)c(C(=O)O)c3OB2O)c2cc(F)c(O)c(O)c2Cl)C(=O)C1=O)Nc1cccc(O)c1 (stereo partly drawn) [Example 220, (3R)-3-(2-(2-chloro-5-fluoro-3,4-dihydroxyphenyl)-2-(4-(2-(3-(3-hydroxyphenyl)ureido)ethyl)-2,3-dioxopiperazine-1-carboxamido)acetamido)-7-fluoro-2-hydroxy-3,4-dihydro-2H-benzo[e][1,2]oxaborinine-8-carboxylic acid]",> 64,< 10,> 64,8 to 16,8 to 16,2 to 4,< 1,32 to 64,< 1,> 64
"O=C(NCCN1CCN(C(=O)N[C@@H](C(=O)N[C@H]2Cc3ccc(F)c(C(=O)O)c3OB2O)c2cc(F)c(O)c(O)c2Cl)C(=O)C1=O)Nc1ccncc1 [Example 221, (R)-3-((R)-2-(2-chloro-5-fluoro-3,4-dihydroxyphenyl)-2-(2,3-dioxo-4-(2-(3-(pyridin-4-yl)ureido)ethyl)piperazine-1-carboxamido)acetamido)-7-fluoro-2-hydroxy-3,4-dihydro-2H-benzo[e][1,2]oxaborinine-8-carboxylic acid]",> 64,< 10,> 64,2 to 4,2 to 4,< 1,< 1,< 1,< 1,> 64
"O=C(NCCN1CCN(C(=O)N[C@@H](C(=O)N[C@H]2Cc3ccc(F)c(C(=O)O)c3OB2O)c2cc(F)c(O)c(O)c2Cl)C(=O)C1=O)Nc1cccnc1 [Example 222, (R)-3-((R)-2-(2-chloro-5-fluoro-3,4-dihydroxyphenyl)-2-(2,3-dioxo-4-(2-(3-(pyridin-3-yl)ureido)ethyl)piperazine-1-carboxamido)acetamido)-7-fluoro-2-hydroxy-3,4-dihydro-2H-benzo[e][1,2]oxaborinine-8-carboxylic acid]",> 64,< 10,> 64,2 to 4,2 to 4,< 1,2 to 4,2 to 4,< 1,> 64
"CN(CCN1CCN(C(=O)NC(C(=O)N[C@H]2Cc3ccc(F)c(C(=O)O)c3OB2O)c2cc(F)c(O)c(O)c2Cl)C(=O)C1=O)S(=O)(=O)c1ccc(C(N)=O)cc1 (stereo partly drawn) [Example 223, (3R)-3-(2-(4-(2-((4-carbamoyl-N-methylphenyl)sulfonamido)ethyl)-2,3-dioxopiperazine-1-carboxamido)-2-(2-chloro-5-fluoro-3,4-dihydroxyphenyl)acetamido)-7-fluoro-2-hydroxy-3,4-dihydro-2H-benzo[e][1,2]oxaborinine-8-carboxylic acid]",> 64,< 10,> 64,2 to 4,2 to 4,< 1,2 to 4,< 1,< 1,> 64
"CN(CCN1CCN(C(=O)NC(C(=O)N[C@H]2Cc3ccc(F)c(C(=O)O)c3OB2O)c2cc(F)c(O)c(O)c2Cl)C(=O)C1=O)S(=O)(=O)c1cccc(C(N)=O)c1 (stereo partly drawn) [Example 224, (3R)-3-(2-(4-(2-((3-carbamoyl-N-methylphenyl)sulfonamido)ethyl)-2,3-dioxopiperazine-1-carboxamido)-2-(2-chloro-5-fluoro-3,4-dihydroxyphenyl)acetamido)-7-fluoro-2-hydroxy-3,4-dihydro-2H-benzo[e][1,2]oxaborinine-8-carboxylic acid]",> 64,< 10,> 64,2 to 4,2 to 4,< 1,< 1,< 1,< 1,> 64
